For one compound, IC50 results are on record in PMC6048275, “Methylpiperidinium Iodides as Novel Antagonists for α7 Nicotinic Acetylcholine Receptors” (Frontiers in Pharmacology, 2018).

The target in this assay is T1, rat hippocampal α7 nAChR (endogenous, CA1 stratum radiatum interneurons) (Rattus norvegicus, UniProt Q05941).
T1 construct: gene Chrna7; native full-length homopentamer in rat hippocampal CA1 interneurons in brain slices
Put plainly: whole-cell voltage clamp, choline-induced current, rat CA1 interneurons in slice. The conditions noted are these: 10 mM choline puffs; antagonist; -70 mV; pH 7.4; room temperature; approximate, read from concentration-response curve; voltage-independent; native receptor, α7β2 possibly mixed; read-out: 50% inhibition of ICh.

T1 sequence (Q05941 23-502): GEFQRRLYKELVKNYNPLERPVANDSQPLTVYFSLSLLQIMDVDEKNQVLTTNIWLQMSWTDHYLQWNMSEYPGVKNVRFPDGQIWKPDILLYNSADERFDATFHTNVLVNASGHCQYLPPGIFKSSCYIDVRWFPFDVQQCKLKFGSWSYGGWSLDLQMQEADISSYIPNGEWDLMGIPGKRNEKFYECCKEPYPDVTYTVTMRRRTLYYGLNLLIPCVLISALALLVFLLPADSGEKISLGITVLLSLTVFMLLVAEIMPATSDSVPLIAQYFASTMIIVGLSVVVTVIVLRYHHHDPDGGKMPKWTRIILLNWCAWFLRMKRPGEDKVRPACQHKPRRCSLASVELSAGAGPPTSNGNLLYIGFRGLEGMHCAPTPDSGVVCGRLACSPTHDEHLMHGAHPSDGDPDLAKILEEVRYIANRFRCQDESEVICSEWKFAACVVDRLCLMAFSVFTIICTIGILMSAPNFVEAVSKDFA

As to `CCCCCCCOc1ccc(OCC[N+]2(C)CCCCC2)cc1` [12a], the IC50 was approximately 5 µM.
